What was measured:
[1] = tested on: intramitochondrial CyP-D rather than extramitochondrial CyP-A; settings: for mitochondrial matrix/extramitochondrial accumulation ratio: isolated rat liver mitochondria plus recombinant CyP-A, 25° C.
cyclophilin D (CyP-D) = cyclophilin D (CyP-D) (Rattus norvegicus, UniProt P29117); experiment: PPIase assay, inhibition of recombinant CyP-D by cyclosporins
[2] = tested on: rat heart cells (ventricular cardiomyocytes); experiment: Oxygen and glucose deprivation / reoxygenation induced necrosis of heart cells; format: cell-based
rat hippocampal neurons = experiment: Oxygen and glucose deprivation (pseudo ischaemia/reperfusion) induced necrosis of hippocampal neurons; format: cell-based; settings: for protection against neuron mortality (necrosis) following OGD: within 90 min, about 60% of neurons necrotic without compound
[3] = tested on: Permeability Transition (PT) pore; experiment: Ca2+-induced PT pore opening (swelling, absorbance at 540 nm) in isolated mitochondria; format: biochemical; settings: read-out: concentration giving 50% inhibition of PT pore opening; isolated rat liver mitochondria, 50 μM Ca2+ infused slowly
[4] = tested on: caspase-3 activation in B50 cells; experiment: Nitroprusside-induced caspase-3 activation in B50 cells (marker of CyP-A activity); format: cell-based, rat; settings: 100 μM nitroprusside 40 min, assayed after 5 hr, Compound 1 at 2.5 μM
CyP-D(+) B50 cells = experiment: TMRE uptake (inner membrane potential) in B50 cells and CyP-D overexpressing clone; format: cell-based, rat

Chain of cyclophilin D (CyP-D) (P29117 30-206): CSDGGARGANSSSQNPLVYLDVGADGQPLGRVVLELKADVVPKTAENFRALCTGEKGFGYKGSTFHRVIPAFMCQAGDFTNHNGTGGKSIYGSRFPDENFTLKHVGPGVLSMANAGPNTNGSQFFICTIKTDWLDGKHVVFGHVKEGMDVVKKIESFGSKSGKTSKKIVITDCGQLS

CC[C@@H]1NC(=O)[C@H]([C@H](O)[C@H](C)C/C=C/C(=O)NCCOCCNC(=O)CC[P+](c2ccccc2)(c2ccccc2)c2ccccc2)N(C)C(=O)[C@H](C(C)C)N(C)C(=O)[C@H](CC(C)C)N(C)C(=O)[C@H](CC(C)C)N(C)C(=O)[C@@H](C)NC(=O)[C@H](C)NC(=O)[C@H](CC(C)C)N(C)C(=O)[C@H](C(C)C)NC(=O)[C@H](CC(C)C)N(C)C(=O)CN(C)C1=O [Compound 2, (16R,17R,E)-17-((2S,5S,11S,14S,17S,20S,23R,26S,29S,32S)-5-ethyl-11,17,26,29-tetraisobutyl-14,32-diisopropyl-1,7,10,16,20,23,25,28,31-nonamethyl-3,6,9,12,15,18,21,24,27,30,33-undecaoxo-1,4,7,10,13,16,19,22,25,28,31-undecaazacyclotritriacontan-2-yl)-17-hydroxy-16-methyl-4,12-dioxo-1,1,1-triphenyl-8-oxa-5,11-diaza-1-phosphoniaheptadec-13-ene]
mitochondrial matrix/extramitochondrial accumulation ratio [1]: >10 | Ki (cyclophilin D (CyP-D)): 30 nM | necrosis during reoxygenation ([2]; 5 hours reoxygenation, in particular first 3 hours): inhibited | necrosis induced by OGD for 4 hours ([2]; before reoxygenation, with or without compound): negligible necrosis | cytoprotection at 15 nM ([2]; necrosis after 3 hours of reoxygenation, 15 nM): complete protection

C/C=C/C[C@@H](C)[C@@H](O)[C@H]1C(=O)N[C@@H](CC)C(=O)N(C)CC(=O)N(C)[C@@H](CC(C)C)C(=O)N[C@@H](C(C)C)C(=O)N(C)[C@@H](CC(C)C)C(=O)N[C@@H](C)C(=O)N[C@H](C)C(=O)N(C)[C@@H](CC(C)C)C(=O)N(C)[C@@H](CC(C)C)C(=O)N(C)[C@@H](C(C)C)C(=O)N1C [CsA, Cyclosporin A]
protection against neuron mortality (necrosis) following OGD (rat hippocampal neurons; 30 min OGD): less protective | protection against OGD-induced necrosis at 0.1 μM (rat hippocampal neurons; hippocampal neurons, 0.1 μM): relatively small protection | protection against OGD-induced necrosis at higher concentrations (rat hippocampal neurons; hippocampal neurons, above 0.1 μM): reversed | maximal protection ([2]; necrosis after 3 hours of reoxygenation): 42%

C/C=C/C[C@@H](C)[C@@H](O)[C@H]1C(=O)N[C@@H](CC)C(=O)N(C)C(Cc2ccc(C(=O)NCCCCCCNC(=O)c3ccc(-c4c5ccc(=[N+](C)C)cc-5oc5cc(N(C)C)ccc45)cc3)cc2)C(=O)N(C)[C@@H](CC(C)C)C(=O)N[C@@H](C(C)C)C(=O)N(C)[C@@H](CC(C)C)C(=O)N[C@@H](C)C(=O)N[C@H](C)C(=O)N(C)[C@@H](CC(C)C)C(=O)N(C)[C@@H](CC(C)C)C(=O)N(C)[C@@H](C(C)C)C(=O)N1C (some centres unmarked) [Compound 4]
mitochondrial matrix/extramitochondrial accumulation ratio [1]: 4.2 | Ki (cyclophilin D (CyP-D)): 120 nM

C/C=C/C[C@@H](C)[C@@H](O)[C@H]1C(=O)N[C@@H](CC)C(=O)N(C)C(Cc2ccc(C(=O)NCCOCCNC(=O)CC[P+](c3ccccc3)(c3ccccc3)c3ccccc3)cc2)C(=O)N(C)[C@@H](CC(C)C)C(=O)N[C@@H](C(C)C)C(=O)N(C)[C@@H](CC(C)C)C(=O)N[C@@H](C)C(=O)N[C@H](C)C(=O)N(C)[C@@H](CC(C)C)C(=O)N(C)[C@@H](CC(C)C)C(=O)N(C)[C@@H](C(C)C)C(=O)N1C (stereo partly drawn) [Compound 3, 12-(4-(((5S,8S,11S,14S,17R,20S,23S,26S,29S,32S)-32-ethyl-29-((1R,2R,E)-1-hydroxy-2-methylhex-4-enyl)-5,11,20,23-tetraisobutyl-8,26-diisopropyl-1,4,10,14,17,19,22,25,28-nonamethyl-3,6,9,12,15,18,21,24,27,30,33-undecaoxo-1,4,7,10,13,16,19,22,25,28,31-undecaazacyclotritriacontan-2-yl)methyl)phenyl)-4,12-dioxo-1,1,1-triphenyl-8-oxa-5,11-diaza-1-phosphoniadodecane]
mitochondrial matrix/extramitochondrial accumulation ratio [1]: >10 | Ki (cyclophilin D (CyP-D)): 6 nM

C/C=C/C[C@@H](C)[C@@H](O)[C@H]1C(=O)N[C@@H](CC)C(=O)N(C)C(Cc2ccc(C(=O)NCCCCCCNC(=O)CCCCC[P+](c3ccccc3)(c3ccccc3)c3ccccc3)cc2)C(=O)N(C)[C@@H](CC(C)C)C(=O)N[C@@H](C(C)C)C(=O)N(C)[C@@H](CC(C)C)C(=O)N[C@@H](C)C(=O)N[C@H](C)C(=O)N(C)[C@@H](CC(C)C)C(=O)N(C)[C@@H](CC(C)C)C(=O)N(C)[C@@H](C(C)C)C(=O)N1C (stereo partly drawn) [Compound 1, (6-(6-(4-(((5S,8S,11S,14S,17R,20S,23S,26S,29S,32S)-32-ethyl-29-((1R,2R,E)-1-hydroxy-2-methylhex-4-enyl)-5,11,20,23-tetraisobutyl-8,26-diisopropyl-1,4,10,14,17,19,22,25,28-nonamethyl-3,6,9,12,15,18,21,24,27,30,33-undecaoxo-1,4,7,10,13,16,19,22,25,28,31-undecaazacyclotritriacontan-2-yl)methyl)benzamido)hexylamino)-6-oxohexyl)triphenylphosphonium]
IC50 [3]: ~400 nM | effect on nitroprusside-induced activation of caspase-3 [4]: no significant effect | inhibition of PT pore formation compared with inhibition of extramitochondrial CyP-A ([1]; same incubation, CyP-A activity in supernatant): considerably better | protection against neuron mortality (necrosis) following OGD (rat hippocampal neurons; 30 min OGD): approximately halved | concentration giving maximal protection against OGD-induced necrosis (rat hippocampal neurons; hippocampal neurons, 30 min OGD): > 0.8 µM | concentration for maximal restoration of TMRE uptake by CyP-D(+) cells (CyP-D(+) B50 cells; B50 clone overexpressing CyP-D about 10-fold, 50 nM TMRE): ~2400 nM | effect on TMRE uptake by wild type cells (CyP-D(+) B50 cells; wild type B50 cells, 0.8 μM CsA, 2.4 μM Compound 1): did not affect
